The LD50 is the dose at which mortality reaches 50%. What is called IC50 is the concentration that gives 50% inhibition. Usually Km stands for the substrate concentration at which the rate is half of its maximum.

The nature of data set [1]: Acute toxicity in iv dosed BALB/c nude mouse assessed as mortality after 14 days. Format: organism-based. The settings on record: in vivo.
For a further data set, the system named is HT-29. Put plainly: Antitumor activity against human HT-29 cells xenografted in athymic nu/nu mouse assessed as reduction in tumor growth at 100 mg/kg administered every day for 18 days relative to vehicle-treated control. Type of data set: functional. The settings on record: HT-29, 432 h, read-out: TGI.
Data set [2] concerns HL-60. Briefly: Antiproliferative activity against human HL60 cells assessed as decrease in cell viability measured after 3 days by MTT assay. Type of data set: functional, cell-based. The settings on record: HL-60, 72 h. Background: Formazan colour is commonly taken as a measure of viable cells.
The test system of data set [3] is HL-60. Put plainly: Antitumor activity against human HL60 cells xenografted in NOD-SCID mouse assessed as reduction in tumor growth at 4 umol/kg, iv measured after 15 to 20 days. Format: functional. The settings on record: HL-60, iv, read-out: TGI.
Substrate in data set [4]: CC(=O)N[C@H]1[C@@H]([C@H](O)[C@H](O)CO)O[C@@](O/N=[N+](\[O-])N2CCCC2)(C(=O)O)C[C@@H]1O
Briefly: Activity at Clostridium perfringens neuraminidase assessed as release of nitric oxide by UV-vis spectrophotometer.

Consider `CC1(C)CC[C@]2(C(=O)O[C@H]3O[C@@H](CO)[C@H](O)[C@@H](O)[C@@H]3O)CC[C@]3(C)C(=CC[C@@H]4[C@@]5(C)CC[C@H](OC(=O)CCC(=O)OC6CCN(/[N+]([O-])=N/O[C@@H]7O[C@H](CO)[C@H](O)[C@H](O)[C@H]7O)CC6)C(C)(C)[C@@H]5CC[C@]43C)[C@@H]2C1`, for which the LD50 at 336 h in data set [1] was 173 mg/kg.
As for `O=C(CCCO[N+](=O)[O-])Oc1ccccc1C(=O)Oc1ccc(-c2cc(=S)ss2)cc1`, the inhibition in vivo at 100 mg/kg in the data set with HT-29 turned out to be 85%.
With `CCOC(=O)N1CCN(/[N+]([O-])=N/Oc2ccc([N+](=O)[O-])cc2[N+](=O)[O-])CC1`, the IC50 in the data set with HL-60 [2] lay in the range of 200 to 500 nM. Moreover, the inhibition in vivo at 4 µmol/kg in the data set on HL-60 [3] turned out to be 50%.

B1: Sialidase (Clostridium perfringens), P10481 (protein)
chain: MCNKNNTFEKNLDISHKPEPLILFNKDNNIWNSKYFRIPNIQLLNDGTILTFSDIRYNGPDDHAYIDIASARSTDFGKTWSYNIAMKNNRIDSTYSRVMDSTTVITNTGRIILIAGSWNTNGNWAMTTSTRRSDWSVQMIYSDDNGLTWSNKIDLTKDSSKVKNQPSNTIGWLGGVGSGIVMDDGTIVMPAQISLRENNENNYYSLIIYSKDNGETWTMGNKVPNSNTSENMVIELDGALIMSTRYDYSGYRAAYISHDLGTTWEIYEPLNGKILTGKGSGCQGSFIKATTSNGHRIGLISAPKNTKGEYIRDNIAVYMIDFDDLSKGVQEICIPYPEDGNKLGGGYSCLSFKNNHLGIVYEANGNIEYQDLTPYYSLINKQ
Turning to B1, the Km in data set [4] was determined as 140 µM.

For the origin of these results see ChEMBL document CHEMBL4017484, “Nitric Oxide Donor-Based Cancer Therapy: Advances and Prospects” (J Med Chem, 2017).
